Assay results reported in patent US20260258369A1, “GENERATION OF BRANCHING URETERIC BUD AND COLLECTING DUCT ORGANOIDS FROM HUMAN PLURIPOTENT STEM CELLS” (The Brigham and Women's Hospital, Inc., priority 2023, published 2026).
“Also recorded” adds a separate entry of the source.

Legend:
V-type ATPase [1] = assay: Transwell open-circuit voltage and calculated current in FOXI1-induced (doxycycline-treated) CD cells; type: cell-based, human; conditions: open circuit transwell, amiloride 10 μM
ENaC [2] = target: T1, ENaC (Homo sapiens, UniProt P37088+P51168+P51170); conditions: amiloride 10 μM, open circuit
T1 sequence (P37088 1-669): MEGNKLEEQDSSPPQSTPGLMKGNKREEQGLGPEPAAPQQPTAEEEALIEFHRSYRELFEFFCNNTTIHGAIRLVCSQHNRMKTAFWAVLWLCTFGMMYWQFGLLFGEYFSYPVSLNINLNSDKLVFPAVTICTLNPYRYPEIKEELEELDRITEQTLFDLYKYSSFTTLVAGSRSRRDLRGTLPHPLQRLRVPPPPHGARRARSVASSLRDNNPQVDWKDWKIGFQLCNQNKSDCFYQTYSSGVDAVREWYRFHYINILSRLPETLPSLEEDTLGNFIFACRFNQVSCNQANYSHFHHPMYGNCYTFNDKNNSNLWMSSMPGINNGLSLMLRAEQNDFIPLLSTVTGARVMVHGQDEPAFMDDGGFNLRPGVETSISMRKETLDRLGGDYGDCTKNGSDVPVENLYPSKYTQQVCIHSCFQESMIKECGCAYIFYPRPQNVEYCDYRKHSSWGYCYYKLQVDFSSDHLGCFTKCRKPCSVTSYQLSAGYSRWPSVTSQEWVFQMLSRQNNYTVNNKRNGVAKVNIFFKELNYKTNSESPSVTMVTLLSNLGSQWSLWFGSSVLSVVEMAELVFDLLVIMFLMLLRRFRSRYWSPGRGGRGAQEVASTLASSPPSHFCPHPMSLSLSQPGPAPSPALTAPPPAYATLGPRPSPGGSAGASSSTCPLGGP
T1 sequence (P51168 1-640): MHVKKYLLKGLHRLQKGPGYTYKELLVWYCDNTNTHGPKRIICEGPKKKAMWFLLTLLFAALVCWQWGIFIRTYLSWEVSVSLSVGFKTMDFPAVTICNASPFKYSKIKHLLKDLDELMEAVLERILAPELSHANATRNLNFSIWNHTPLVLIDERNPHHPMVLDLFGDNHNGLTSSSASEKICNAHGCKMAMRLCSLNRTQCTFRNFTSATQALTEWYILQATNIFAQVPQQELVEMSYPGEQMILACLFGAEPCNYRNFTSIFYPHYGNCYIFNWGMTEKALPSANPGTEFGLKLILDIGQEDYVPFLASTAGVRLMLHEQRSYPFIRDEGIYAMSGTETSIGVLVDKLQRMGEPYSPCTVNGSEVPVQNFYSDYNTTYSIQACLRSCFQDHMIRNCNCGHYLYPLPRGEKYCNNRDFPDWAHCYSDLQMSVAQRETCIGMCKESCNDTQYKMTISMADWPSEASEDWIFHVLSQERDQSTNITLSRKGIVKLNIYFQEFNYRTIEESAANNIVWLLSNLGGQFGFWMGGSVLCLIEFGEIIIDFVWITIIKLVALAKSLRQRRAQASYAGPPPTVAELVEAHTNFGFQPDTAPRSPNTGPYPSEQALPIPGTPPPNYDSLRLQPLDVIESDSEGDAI
T1 sequence (P51170 1-649): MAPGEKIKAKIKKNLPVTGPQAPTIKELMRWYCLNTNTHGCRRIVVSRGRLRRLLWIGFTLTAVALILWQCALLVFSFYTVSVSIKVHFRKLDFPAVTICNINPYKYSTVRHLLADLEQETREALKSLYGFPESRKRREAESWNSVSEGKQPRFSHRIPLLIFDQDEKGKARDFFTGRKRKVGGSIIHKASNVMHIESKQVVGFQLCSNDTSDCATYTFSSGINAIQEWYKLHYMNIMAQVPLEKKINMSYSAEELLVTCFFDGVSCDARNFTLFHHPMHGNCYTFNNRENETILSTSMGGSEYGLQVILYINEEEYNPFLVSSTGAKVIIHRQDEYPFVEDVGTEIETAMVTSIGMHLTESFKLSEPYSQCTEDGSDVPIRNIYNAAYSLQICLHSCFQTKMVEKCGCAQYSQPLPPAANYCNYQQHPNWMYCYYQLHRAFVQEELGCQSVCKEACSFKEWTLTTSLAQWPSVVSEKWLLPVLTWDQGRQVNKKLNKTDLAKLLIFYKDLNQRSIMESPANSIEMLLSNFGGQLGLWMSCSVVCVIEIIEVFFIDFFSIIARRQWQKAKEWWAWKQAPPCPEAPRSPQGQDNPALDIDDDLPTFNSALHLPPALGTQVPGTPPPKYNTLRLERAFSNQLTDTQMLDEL

V-type ATPase [3] = target: T2, V-type ATPase (Homo sapiens, UniProt P27449); assay: Ussing chamber short-circuit current in FOXI1-induced CD cells; conditions: closed circuit
ENaC [4] = target: T1, ENaC; assay: Ussing chamber short-circuit current (Isc) recordings in CD organoid-derived cells; type: cell-based; parameters: while the alpha subunit (SCNN1A) was expressed at lower levels; we confirmed expression at the protein level using an antibody specific to SCNN1B; the beta and gamma subunits were most abundant transcriptionally; endogenous in cells; host or cells: 2D cell line derived from hPSC-derived collecting duct organoids (principal cells), grown on transwell / Snapwell inserts
V-type ATPase [5] = target: T2, V-type ATPase; assay: Transwell open-circuit voltage and calculated current in FOXI1-induced (doxycycline-treated) CD cells; type: cell-based; conditions: bafilomycin 10 nM, added after amiloride, open circuit
[6] = test system: CD organoid-derived cells; assay: Aldosterone response of transepithelial current in CD organoid-derived cells; type: cell-based, human; conditions: 24 hours; for increase in amiloride-sensitive current: aldosterone 10-100 nM, no dexamethasone

`N=C(N)NC(=O)c1nc(Cl)c(N)nc1N` [amiloride] was tested, and the “amiloride sensitivity of FOXI1-induced cells” value (V-type ATPase [1]) was “largely lost sensitivity”, the transepithelial resistance (ENaC [2]) was “raising the transepithelial resistance” and the “transepithelial voltage and current” value (ENaC [2]; within several minutes) was “completely abolished”. For the same compound, the “short-circuit current in FOXI1-induced cells, amiloride” value (V-type ATPase [3]) was “small increase in current”, the “residual short-circuit current after raising the concentration” value (ENaC [4]; amiloride 100 μM, Ussing chamber) was “eliminated the small amount of residual current; also recorded: completely abolished” and the inhibition at 10 µM (ENaC [4]; read-out: inhibition of short-circuit current) was greater than 95%.

For `CO/C1=C\C(C)=C\[C@@H](C)[C@@H](O)[C@@H](C)C/C(C)=C/C=C/[C@H](OC)[C@@H]([C@@H](C)[C@@H](O)[C@H](C)[C@@]2(O)C[C@@H](O)[C@H](C)[C@@H](C(C)C)O2)OC1=O` [bafilomycin, bafilomycin-A1], the “voltage and calculated current in FOXI1-induced cells” value (V-type ATPase [5]) was “completely suppressed” and the “short-circuit current in FOXI1-induced cells, bafilomycin” value (V-type ATPase [3]) was “near complete inhibition of the current”.

`C[C@]12CCC(=O)C=C1CC[C@@H]1[C@@H]2[C@@H](O)C[C@]2(C=O)[C@@H](C(=O)CO)CC[C@@H]12` [Aldosterone, aldosterone] was tested, and the “increase in amiloride-sensitive current” value [6] was ~ 2.5 fold, the “increase in amiloride-sensitive current” value ([6]; listed as aldosterone) was “approximately 2.5 fold” and the “transepithelial voltage and current” value ([6]; varying concentrations of aldosterone) was “dose-dependent increase”.
